No end group written: not given here.

One assay has as its system ALDH2. The assay is described as follows: 2-D IEF phosphorylation of ALDH2 in hearts after I/R. The settings on record: cardiac I/R. Also noted: species or system rat. As to the method: (§1) An ex vivo model of acute ischemic heart damage was used, which involves a 30 min equilibration period, followed by 30 min of global ischemia, which in turn is followed by 60 min of reperfusion. The hearts were perfused with 1 μM TAT or TAT-conjugated peptide. Normoxic control hearts were subjected to 90 min perfusion in the absence of ischemia. Coronary effluent was collected to determine creatine phosphokinase (CPK) release during the first 30 min of the reperfusion period. At the end of the reperfusion period, hearts were sliced into 1-mm-thick transverse sections and incubated in triphenyltetrazolium chloride solution (TTC, 1% in phosphate buffer, pH 7.4) at 37° C. for 15 min. Infarct size was expressed as a percentage of the risk zone (equivalent to total LV muscle mass) (methods described in Brandman et al., 2007, J. Biol. Chem., 282:4113-4123; Inagaki et al., 2003, Circulation, 108:869-875).
2-D IEF/SDS polyacrylamide gel electrophoresis using rat heart samples was performed as previously described (Chen et al., 2008, Science, 321:1493-1495). 10% SDS gel electrophoresis and Western blotting were carried out by standard methods using PDK2 c-term rabbit (Abgent, Calif., USA), PDH subunit E1 alpha monoclonal (Invitrogen, Calif., USA) and ALDH2 goat (Santa Cruz Biotechnology, CA, USA) antibodies. […]

The target of assay [1] is T1, δPKC (Mus musculus, UniProt P28867).
T1 construct: endogenous in cells; host or cells: primary fibroblasts from wild-type mice
T1 sequence (P28867 whole entry): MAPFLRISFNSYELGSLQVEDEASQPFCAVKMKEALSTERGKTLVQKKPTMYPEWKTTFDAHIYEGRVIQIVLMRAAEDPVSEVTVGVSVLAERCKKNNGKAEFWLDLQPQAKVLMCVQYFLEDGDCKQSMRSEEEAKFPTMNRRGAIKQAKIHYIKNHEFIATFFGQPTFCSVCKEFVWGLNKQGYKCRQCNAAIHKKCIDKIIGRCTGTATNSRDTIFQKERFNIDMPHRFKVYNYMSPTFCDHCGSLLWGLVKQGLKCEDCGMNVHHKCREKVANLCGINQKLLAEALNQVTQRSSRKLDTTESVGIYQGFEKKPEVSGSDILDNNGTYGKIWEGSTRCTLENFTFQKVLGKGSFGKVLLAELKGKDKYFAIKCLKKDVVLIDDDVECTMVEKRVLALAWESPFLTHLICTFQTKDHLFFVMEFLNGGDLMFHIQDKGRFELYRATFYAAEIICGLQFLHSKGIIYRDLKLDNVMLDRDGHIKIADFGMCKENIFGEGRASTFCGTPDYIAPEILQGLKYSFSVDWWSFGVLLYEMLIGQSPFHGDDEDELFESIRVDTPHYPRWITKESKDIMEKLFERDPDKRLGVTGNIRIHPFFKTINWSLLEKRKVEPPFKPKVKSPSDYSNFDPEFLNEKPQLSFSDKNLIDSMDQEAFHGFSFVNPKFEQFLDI
The assay is described as follows: MARCKS phosphorylation in wild-type fibroblasts (Western blot). The settings on record: 20% serum, peptides conjugated to TAT47-57, relative to control peptide. The format is cell-based. The text has this: (§2) Fibroblasts were isolated from wild-type or δPKC knockout mice (provided by Dr. Robert Messing, Gallo Center, UCSF) as previously described (Disatnik et al., 2004, J. Cell Sci., 117:4469-4479) and maintained in 20% fetal bovine serum.
(§3) Phosphorylation of myristoylated alanine-rich C kinase substrate (MARCKS), a ubiquitous PKC substrate, was monitored by Western blot of total cell lysates, using anti-phosphorylated MARCKS (Cell Signaling, Danvers, Mass.). Anti-MARCKS and anti-δPKC antibodies were obtained from Santa Cruz Biotechnology (Santa Cruz Biotechnology, CA, USA).
(§4) The ΨPDK sequence is found both in PDK and in the PDK-cognate protein, δPKC. It was therefore predicted that ΨPDK mimics inhibitory intra-molecular interaction, and, similar to ΨδRACK, ΨPDK should compete with the inhibitory interaction of PDK and δPKC, and increase δPKC-mediated functions (FIG. 1A). Phosphorylation of myristoylated alanine-rich C-kinase substrate (MARCKS) was used as a marker of PKC activity (Disatnik et al., 2004, J. Cell. Sci., 117:4469-4479). […] To determine the selectivity of the peptides for δPKC, fibroblasts derived from δPKC knock-out mice were also used.
On the technique in general: Immunoblotting shows a protein as a band on a membrane.

The next assay relates to hearts subjected to I/R. The assay is described as follows: Ex vivo cardiac protection from ischemia/reperfusion (Langendorff; infarct size, CPK release). Also noted: species or system rat. The procedure: as §1, with “108:869-875). […]” for “108:869-875).”
First, I/R-induced infarct size after treatment with ΨPDK or δV1-1 (Inagaki et al., 2003, Circulation, 108:869-875), was smaller than that in hearts treated with the control peptide or with ΨδRACK, the δPKC-specific activator or with δV1-5 (FIG. 6A). Second, similar data were obtained when determining the levels of released creatine phosphokinase (CPK), as a marker of myocardial infarction; CPK levels in the ΨPDK- or δV1-1-treated hearts were similar and were lower than those after treatment with control peptide, ΨδRACK or δV1-5 (FIG. 6B).
To begin determining the contribution of each of the amino acids on the effect of the peptide, Alanine scanning was used (Brunel et al., 2006, J. Virol., 80:1680-1687; Chen et al., J. Pep. Res., 2000, 56:147-156; Brems et al., 1992, Prot. Eng., 5:527-533) (substituting individual amino acid with an alanine). The resultant ΨPDK peptide analogs were then used in the same model of myocardial infarction, using CPK release and JNK phosphorylation as markers for cardiac injury. CPI release into the perfusates and pJNK in the hearts were determined after I/R in the presence of respective peptides and compared to the levels in hearts subjected to I/R in the presence of the control peptide. None of the peptides having a substitution had any significant biological activity (Table 1).

Assay [2] has as its system fibroblasts derived from δPKC knock-out mice. As to the kind of experiment: MARCKS phosphorylation in fibroblasts from δPKC knock-out mice. The format is cell-based, mouse. Conditions: fibroblasts lacking δPKC.
Source text: as §2, §3, §4

In assay [3] the target is T2, δPKC (Homo sapiens, UniProt Q05655).
T2 construct: purchased Invitrogen
T2 sequence (Q05655 whole entry): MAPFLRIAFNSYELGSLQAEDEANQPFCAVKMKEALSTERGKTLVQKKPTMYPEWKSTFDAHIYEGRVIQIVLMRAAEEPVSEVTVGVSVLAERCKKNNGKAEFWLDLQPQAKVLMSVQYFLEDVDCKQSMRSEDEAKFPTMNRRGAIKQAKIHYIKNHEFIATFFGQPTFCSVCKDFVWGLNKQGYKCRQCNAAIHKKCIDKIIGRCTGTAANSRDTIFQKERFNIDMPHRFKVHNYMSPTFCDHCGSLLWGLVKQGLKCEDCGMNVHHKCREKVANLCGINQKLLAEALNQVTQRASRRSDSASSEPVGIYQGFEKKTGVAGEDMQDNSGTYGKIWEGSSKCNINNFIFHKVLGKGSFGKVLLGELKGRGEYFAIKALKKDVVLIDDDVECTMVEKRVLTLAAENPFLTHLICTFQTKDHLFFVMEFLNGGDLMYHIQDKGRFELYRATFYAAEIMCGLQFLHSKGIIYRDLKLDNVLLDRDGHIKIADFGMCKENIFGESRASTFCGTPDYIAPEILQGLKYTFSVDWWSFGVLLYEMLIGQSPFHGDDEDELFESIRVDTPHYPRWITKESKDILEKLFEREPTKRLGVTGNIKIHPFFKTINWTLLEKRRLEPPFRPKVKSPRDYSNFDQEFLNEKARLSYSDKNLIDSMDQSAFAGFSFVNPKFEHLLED
The assay is described as follows: Proteinase K sensitivity of recombinant δPKC. Conditions: non-TAT conjugated peptide; vs no peptide or control peptide ΨδRACK. The format is binding. The procedure: Human recombinant δPKC (Invitrogen, Calif., USA; 50 ng; 0.625 pmole) was incubated with ΨPDK (non-TAT conjugated, 1 nmole) prior to addition of proteinase K (0.05 μg/ml) in 20 mM Tris-HCl, pH 7.4 containing 1 μM DTT. The reaction was stopped as indicated by adding 5 mM PMSF.
Since ΨPDK is derived from a PDK-like sequence in δPKC (FIG. 1B), it was reasoned that this peptide should act as a competitive inhibitor, selective for δPKC phosphorylation of PDK. To test this hypothesis directly, an in vitro kinase assay in which the ability of δPKC to phosphorylate PDK is determined was used.

A further assay concerns the target βIPKC (Homo sapiens, UniProt P05771). The assay is described as follows: Proteinase K sensitivity of βIPKC. The class given is binding.
[4] abbreviates: ex vivo I/R, vs control peptide, ΨδRACK or δV1-5.

βIPKC, sequence (P05771 whole entry): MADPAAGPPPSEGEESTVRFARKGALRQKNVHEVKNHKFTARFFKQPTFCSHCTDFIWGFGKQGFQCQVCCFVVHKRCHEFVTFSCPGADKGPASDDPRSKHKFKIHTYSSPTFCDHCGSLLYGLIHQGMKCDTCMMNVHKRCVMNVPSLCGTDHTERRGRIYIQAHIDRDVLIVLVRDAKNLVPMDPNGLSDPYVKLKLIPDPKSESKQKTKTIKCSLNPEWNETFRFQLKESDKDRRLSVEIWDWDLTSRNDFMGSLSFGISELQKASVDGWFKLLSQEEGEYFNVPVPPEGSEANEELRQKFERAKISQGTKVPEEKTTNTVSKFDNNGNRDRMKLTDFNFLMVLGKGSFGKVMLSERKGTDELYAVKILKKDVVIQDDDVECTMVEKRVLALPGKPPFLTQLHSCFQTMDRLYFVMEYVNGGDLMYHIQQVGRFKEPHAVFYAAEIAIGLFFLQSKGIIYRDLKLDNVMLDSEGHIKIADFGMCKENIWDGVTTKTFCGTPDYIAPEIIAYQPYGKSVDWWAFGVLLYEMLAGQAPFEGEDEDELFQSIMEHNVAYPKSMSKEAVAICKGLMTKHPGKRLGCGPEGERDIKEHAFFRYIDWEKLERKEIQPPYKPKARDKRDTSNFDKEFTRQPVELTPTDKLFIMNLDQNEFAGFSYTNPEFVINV

Take “ALSTER (not fully specified (C-terminus); also: TAT47-57 conjugated via disulfide) [ΨPDK, for cells and hearts conjugated to TAT47-57 via disulfide bond]”: the ALDH2 phosphorylation result in the assay on ALDH2 is “neither ΨPDK nor δV1-1 affected ALDH2 phosphorylation”. In addition, the MARCKS phosphorylation entry in the assay with δPKC [1] is “increased MARCKS phosphorylation”. Moreover, the “cardioprotection / biological activity in ex vivo I/R model (in words)” value in the assay on hearts subjected to I/R (CPK release and JNK phosphorylation as markers) is “exert cardio-protective effects”. Also, the “CPK (u/L)” value in the assay on hearts subjected to I/R (ex vivo I/R, release into perfusate, 1 μM peptide) was 335 ± 520 u/L. Also, in the assay with hearts subjected to I/R (setting [4]), the “CPK levels (in words)” value is listed as “lower” and the I/R-induced infarct size result is reported as “smaller”. Also, the MARCKS phosphorylation entry in assay [2] is listed as “did not affect MARCKS phosphorylation”. Further, in the assay with δPKC [3], the “stability of δPKC to proteinase K digestion” value is “more stable to PK digestion”. In addition, in the assay with βIPKC, the “sensitivity of βIPKC to proteolysis by PK” value is given as “unaffected”.
